Measured values reported in article PMC5384453, “A multi-functional PEGylated gold(III) compound: potent anti-cancer properties and self-assembly into nanostructures for drug co-delivery” (Chemical Science, 2016).

Legend:
A2780cis = experiment: In vitro cytotoxicity, MTT assay; type: cell-based, human; conditions: for IC50: A2780cis, MTT assay, 72 h incubation; for Resistance found in A2780cis: IC50 of A2780cis cells / IC50 of A2780 cells; for Toxicity toward cancer cells compared to that toward CCD-19Lu cells, A2780cis: IC50 of CCD-19Lu cells / IC50 of A2780cis; for Toxicity toward cancer cells compared to that toward NCM460 cells, A2780cis: IC50 of NCM460 cells / IC50 of A2780cis
Protocol: (§7) In vitro cytotoxicity assays. HeLa, NCI-H460, HCT116, A2780, A2780cis and
(§8) cells), respectively, were seeded in 96-well plates for 24 h. The cells were then treated with a serial concentration of gold(III) complexes and incubated at 37 °C under a 5% CO2 atmosphere for 72 h. For nanostructures of 1, 2 and NC1, they were dissolved in
(§9) cisplatin were dissolved in culture medium-DMSO solution mixture (99:1, v/v).
(§10) After incubation for 72 h, MTT in PBS solution (5 mg/mL, 10 μL) was added to each well. The plates were incubated at 37 °C under a 5% CO2 atmosphere for another 4 h, and the cells were lysed by the addition of SDS solution (10%, w/w) with 0.01 M HCl (100 μL). After incubation in dark at 37 °C overnight, the cell viability after treatment was determined by a microtitre plate reader monitoring at the absorbance at 590 nm,

NCM460 cells = experiment: FITC-Annexin V staining and flow cytometry; type: cell-based, human; conditions: NCM460, 2 μM, 24 h
Protocol: (§1) The induction of apoptosis of HCT116 and NCM460 cells by 1 was further studied using FITC-Annexin V staining. […] The quantity of apoptotic cells stained by FITC-Annexin V after treatment with 1 or Au1a was also investigated by flow cytometry. […]
(§2) with gold(III) complexes and FITC-annexin V staining. HCT116 (1×10 5 cells) and […]
(§3) annexin-binding buffer solution. The cells were then incubated with FITC-annexin V […]
(§4) at room temperature in dark for 15 min. The solution was then removed, and the cells were washed with annexin-binding buffer solution. Fluorescence images were then […]
(§5) in ice and analyzed by flow cytometry immediately. […]
(§6) staining and flow cytometry.

HCT116 cells [1] = experiment: FITC-Annexin V staining and flow cytometry; type: cell-based, human; conditions: HCT116, 2 μM, 24 h
Protocol: as §1, §2, §3, §4, §5, §6

HCT116 = experiment: In vitro cytotoxicity, MTT assay; type: cell-based, human; conditions: for IC50: HCT116, MTT assay, 72 h incubation; for Toxicity toward cancer cells compared to that toward CCD-19Lu cells, HCT-116: IC50 of CCD-19Lu cells / IC50 of HCT-116; for Toxicity toward cancer cells compared to that toward MIHA cells, HCT-116: IC50 of MIHA cells / IC50 of HCT-116; for Toxicity toward cancer cells compared to that toward NCM460 cells, HCT-116: IC50 of NCM460 cells / IC50 of HCT-116
Protocol: as §7, §8, §9, §10

CCD-19Lu = experiment: In vitro cytotoxicity, MTT assay; type: cell-based, human; conditions: 72 h incubation
Protocol: as §7, §8, §9, §10

HeLa = experiment: In vitro cytotoxicity, MTT assay; type: cell-based, human; conditions: for IC50: HeLa, MTT assay, 72 h incubation, read-out: IC50; for Toxicity toward cancer cells compared to that toward CCD-19Lu cells, HeLa: IC50 of CCD-19Lu cells / IC50 of HeLa; for Toxicity toward cancer cells compared to that toward MIHA cells, HeLa: IC50 of MIHA cells / IC50 of HeLa; for Toxicity toward cancer cells compared to that toward NCM460 cells, HeLa: IC50 of NCM460 cells / IC50 of HeLa
Protocol: as §7, §8, §9, §10

MIHA = experiment: In vitro cytotoxicity, MTT assay; type: cell-based; conditions: MTT assay, 72 h incubation, read-out: IC50
Protocol: as §7, §8, §9, §10

A2780 = experiment: In vitro cytotoxicity, MTT assay; type: cell-based, human; conditions: for IC50: A2780, MTT assay, 72 h incubation; for Toxicity toward cancer cells compared to that toward CCD-19Lu cells, A2780: IC50 of CCD-19Lu cells / IC50 of A2780; for Toxicity toward cancer cells compared to that toward MIHA cells, A2780: IC50 of MIHA cells / IC50 of A2780; for Toxicity toward cancer cells compared to that toward NCM460 cells, A2780: IC50 of NCM460 cells / IC50 of A2780
Protocol: as §7, §8, §9, §10

A2780adr = experiment: In vitro cytotoxicity, MTT assay; type: cell-based, human; conditions: for IC50: A2780adr, MTT assay, 72 h incubation, read-out: IC50; for Resistance found in A2780adr: IC50 of A2780adr cells / IC50 of A2780 cells; for Toxicity toward cancer cells compared to that toward CCD-19Lu cells, A2780adr: IC50 of CCD-19Lu cells / IC50 of A2780adr; for Toxicity toward cancer cells compared to that toward MIHA cells, A2780adr: IC50 of MIHA cells / IC50 of A2780adr; for Toxicity toward cancer cells compared to that toward NCM460 cells, A2780adr: IC50 of NCM460 cells / IC50 of A2780adr
Protocol: as §7, §8, §9, §10

NCM460 = experiment: In vitro cytotoxicity, MTT assay; type: cell-based, human; conditions: 72 h incubation
Protocol: as §7, §8, §9, §10

NCI-H460 = experiment: In vitro cytotoxicity, MTT assay; type: cell-based, human; conditions: for Toxicity toward cancer cells compared to that toward CCD-19Lu cells, NCI-H460: IC50 of CCD-19Lu cells / IC50 of NCI-H460; for Toxicity toward cancer cells compared to that toward MIHA cells, NCI-H460: IC50 of MIHA cells / IC50 of NCI-H460; for Toxicity toward cancer cells compared to that toward NCM460 cells, NCI-H460: IC50 of NCM460 cells / IC50 of NCI-H460; for IC50: NCI-H460, MTT assay, 72 h incubation
Protocol: as §7, §8, §9, §10

HCT116 cells [2] = experiment: Hydrolysis in live cells, UPLC-QTOF-MS of cell lysates; type: in vitro ADME, human; conditions: 2 μM, 24 h
Protocol: Hydrolysis of the gold(III) complexes in live cells was examined by ultra-performance liquid chromatography coupled quadrupole-time-of-flight mass spectrometry (UPLC-QTOF-MS). Colon cancer cells (HCT116) were treated with 1, 2 and 3 (2 μM) for 24 h, harvested and lysed in an acetonitrile–water solution mixture (3 : 1, v/v) prior to UPLC-QTOF-MS analysis. […] Therefore, the peak is attributable to the major metabolite of 1 formed in HCT116 cells. […] This should be attributable to the higher stability of the amide bond versus the ester bond in vitro. […]
which reflected the amount of blue formazan formed. IC50 values were then determined by CompuSyn S6 from three independent measurements.
Study on the release of hydrolyzed product from 1 and 2 in aqueous buffer solutions by ICP-MS. The nanostructures of gold(III) complex was dissolved in PBS solution (pH 7.4; 1 mg/mL) or sodium acetate buffer solution (pH 4.0; 1 mg/mL) and was dialyzed against 1 L of the buffer solution at 37 °C using semipermeable minidialysis tubes (molecular weight cut-off = 1,000 Da; GE Healthcare). At a predetermined time, an aliquot of solution was removed and dissolved in HNO3/HCl solution mixture (9:1, v/v; volume of aliquot: volume of acid mixture = 1:3). The solution mixture was heated at 65 °C with shaking overnight, and the gold content was determined by ICP-MS from three independent aliquots.
Study on the hydrolysis of 1 and 2 in aqueous buffer solutions by 1H NMR. […]
The flow rate was 0.4 mL/min and the injection volume was 2 µL. The UPLC-QTOF-MS chromatograms of 1, 3, 4 and solvent control in acetonitrile were also recorded for the interpretation of UPLC-QTOF-MS chromatograms of the cell lysate. […]
Au1a (2 µM; with 1 vol% DMSO). […] An aliquot of the cell suspension was subjected to Bio-rad protein assay with a microtitre plate reader at the absorbance at 595 nm, using bovine serum albumin as the protein standard. […] The solution mixture was heated at 65 °C with shaking overnight, and the gold content was determined by ICP-MS. […]

Molecule | IC50 (A2780cis) | Resistance found in A2780cis (A2780cis) | Toxicity toward cancer cells compared to that toward NCM460 cells, A2780cis (A2780cis) | IC50 (HCT116) | Toxicity toward cancer cells compared to that toward MIHA cells, HCT-116 (HCT116) | Toxicity toward cancer cells compared to that toward NCM460 cells, HCT-116 (HCT116) | IC50 (CCD-19Lu) | IC50 (HeLa) | Toxicity toward cancer cells compared to that toward MIHA cells, HeLa (HeLa) | Toxicity toward cancer cells compared to that toward NCM460 cells, HeLa (HeLa) | IC50 (MIHA) | IC50 (A2780) | Toxicity toward cancer cells compared to that toward NCM460 cells, A2780 (A2780) | IC50 (A2780adr) | Resistance found in A2780adr (A2780adr) | Toxicity toward cancer cells compared to that toward MIHA cells, A2780adr (A2780adr) | Toxicity toward cancer cells compared to that toward NCM460 cells, A2780adr (A2780adr) | IC50 (NCM460) | Toxicity toward cancer cells compared to that toward MIHA cells, NCI-H460 (NCI-H460) | Toxicity toward cancer cells compared to that toward NCM460 cells, NCI-H460 (NCI-H460) | further results
C1=Cc2nc1c(-c1ccccc1)c1ccc([n-]1)c(-c1ccccc1)c1nc(c(-c3ccccc3)c3ccc([n-]3)c2-c2ccccc2)C=C1.[Au+3].[Cl-] [Au1a, [Au(TPP)]Cl, reference compound] | 0.18 ± 0.01 µM | 1.49 | 0.4 | 0.09 ± 0.02 µM | 4.4 | 0.8 | 0.23 ± 0.04 µM | 0.66 ± 0.04 µM | 0.6 | 0.1 | 0.4 ± 0.07 µM | 0.12 ± 0.02 µM | 0.6 | 1.13 ± 0.15 µM | 9.09 | 0.4 | 0.06 | 0.07 ± 0.01 µM | 1.7 | 0.3 | Toxicity toward cancer cells compared to that toward CCD-19Lu cells, A2780cis (A2780cis): 1.3; percent of apoptotic cells (FITC-Annexin V, background corrected) (NCM460 cells): 39.3%; percent of apoptotic cells (FITC-Annexin V, background corrected) (HCT116 cells [1]): 39.6%; Toxicity toward cancer cells compared to that toward CCD-19Lu cells, HCT-116 (HCT116): 2.6; Toxicity toward cancer cells compared to that toward CCD-19Lu cells, HeLa (HeLa): 0.3; Toxicity toward cancer cells compared to that toward CCD-19Lu cells, A2780 (A2780): 1.9; Toxicity toward cancer cells compared to that toward MIHA cells, A2780 (A2780): 3.3; Toxicity toward cancer cells compared to that toward CCD-19Lu cells, A2780adr (A2780adr): 0.2; Toxicity toward cancer cells compared to that toward CCD-19Lu cells, NCI-H460 (NCI-H460): 1.0; IC50 (NCI-H460): 0.23 ± 0.01 µM
[Au(TPP–CONH–PEG5000–OCH3)]Cl [Compound 2] | 47.2 ± 8.62 µM | 3.57 | 1.5 | 8.24 ± 0.22 µM | 14.0 | 8.6 | > 100 µM | 46.5 ± 4.4 µM | 2.5 | 1.5 | 115 ± 17.1 µM | 13.4 ± 0.18 µM | 5.3 | > 120 µM | > 9.09 | < 1.0 | < 0.6 | 71 ± 6.42 µM | 4.7 | 2.9 | Toxicity toward cancer cells compared to that toward MIHA cells, A2780cis (A2780cis; IC50 of MIHA cells / IC50 of A2780cis): 2.4; Toxicity toward cancer cells compared to that toward MIHA cells, A2780 (A2780): 8.6; hydrolysis / release of [Au(TPP–COOH)]+ in cells (HCT116 cells [2]): no release of [Au(TPP–COOH)]^+ can be found; IC50 (NCI-H460): 24.7 ± 4.62 µM
COC(=O)c1ccc(C2=C3C=CC(=N3)C(c3ccccc3)=c3ccc4[n]3[Au+][n]3c(ccc32)C(c2ccccc2)=C2C=CC(=N2)C=4c2ccccc2)cc1.[Cl-] [Compound 3, [Au(TPP–COOCH3)]^+] | 0.19 ± 0.03 µM | 1.0 | 0.7 | 0.09 ± 0.01 µM | 7.7 | 1.4 | 0.73 ± 0.04 µM | 0.82 ± 0.12 µM | 0.9 | 0.2 | 0.74 ± 0.09 µM | 0.23 ± 0.02 µM | 0.7 | 0.65 ± 0.06 µM | 3.23 | 1.1 | 0.2 | 0.13 ± 0.01 µM | 7.0 | 1.3 | Toxicity toward cancer cells compared to that toward CCD-19Lu cells, A2780cis (A2780cis): 3.8; Toxicity toward cancer cells compared to that toward CCD-19Lu cells, HCT-116 (HCT116): 8.1; Toxicity toward cancer cells compared to that toward CCD-19Lu cells, HeLa (HeLa): 0.9; Toxicity toward cancer cells compared to that toward CCD-19Lu cells, A2780 (A2780): 3.2; Toxicity toward cancer cells compared to that toward CCD-19Lu cells, A2780adr (A2780adr): 1.1; hydrolysis / release of [Au(TPP–COOH)]+ in cells (HCT116 cells [2]): hydrolysis of the ester bond was also observed; Toxicity toward cancer cells compared to that toward CCD-19Lu cells, NCI-H460 (NCI-H460): 6.6; IC50 (NCI-H460): 0.11 ± 0.01 µM
